# Data from patent publication US20070149916A1, “Dry matrices as drug reservoirs in electrotransport applications” (ALZA CORPORATION, priority 2005, published 2007).
# Columns and labels:
# [1] = Stability of hydrocortisone hemisuccinate in PVOH hydrogels and PEO matrices (HPLC); assay type: physicochemical
# Protocol: The stability of hydrocortisone hemisuccinate (HCHS), a hydrolytically unstable compound that forms hydrocortisone and succinic acid via hydrolysis, in PVOH hydrogels and PEO matrices was investigated.
# In a separate set of experiments (FIGS. 3A and 3B), the stability of HCHS in PVOH hydrogels and PEO matrices was examined at 23° C. and 40° C. over a period of three days.
# [2] = Stability of apomorphine in aqueous solution and in PEO matrices; assay type: physicochemical; conditions: PEO films cast using 2:1 acetonitrile:methanol; low formate or non-radiation crosslinked PEO; FIG. 4
# [3] = aqueous solutions of apomorphine; cited from earlier work
# [4] = transdermal electrotransport, FIGS. 5A and 5B
time over which formulations containing PEO were stable [2],in vitro flux in PEO films compared with PVOH hydrogels [4],Compound,"stability of HCHS in PEO matrices vs PVOH hydrogels ([1]; 40° C., over a period of three days, FIGS. 3A and 3B)","stability of HCHS in PEO matrix compared with PVOH hydrogel (HPLC chromatogram) ([1]; PEO film made using acetonitrile as the solvent vs PVOH hydrogel, FIG. 2)",time to rapid oxidation in aqueous solutions [3]
–,–,hydrocortisone hemisuccinate [HCHS],Improved stability,more stable in the PEO matrix than in the PVOH hydrogel,–
up to 4 weeks,comparable,CN1CCc2cccc3c2[C@H]1Cc1ccc(O)c(O)c1-3 [apomorphine],–,–,less than 30 minutes
